Experimental findings from patent US20230391760A1, “HETEROCYCLIC GLP-1 AGONISTS” (Gasherbrum Bio, Inc., priority 2020, published 2023) are described below.

The structures appear in SMILES notation. pEC50: −log10 of the molar value.

Usually pEC50 stands for the negative decadic logarithm of the EC50, by convention in mol/L. Lower therefore signals a large EC50.

For the assay, the target named is GLP-1 Receptor (Homo sapiens, UniProt P43220). The experiment in a line: GLP-1R agonist cAMP stimulation assay (HEK293/GLP1R/CRE-LUC cells, cAMP dynamic 2 Kit). The note with it: HEK293/CRE-Luc cell line stably expressing the GLP-1 Receptor, 30 min at 37° C. It is filed as cell-based. The essentials: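 cAMP measured by HTRF competition (d2-labelled cAMP with cryptate antibody, 1 h, room temperature, protected from light). Before that, GLP1R/CRE-Luc HEK293 cells (1000/well) were exposed for 30 min at 37 °C to half-log compound dilutions in DPBS containing IBMX 0.5 mM and BSA 0.1%.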
Chain of GLP-1 Receptor (P43220 24-463, species assumed): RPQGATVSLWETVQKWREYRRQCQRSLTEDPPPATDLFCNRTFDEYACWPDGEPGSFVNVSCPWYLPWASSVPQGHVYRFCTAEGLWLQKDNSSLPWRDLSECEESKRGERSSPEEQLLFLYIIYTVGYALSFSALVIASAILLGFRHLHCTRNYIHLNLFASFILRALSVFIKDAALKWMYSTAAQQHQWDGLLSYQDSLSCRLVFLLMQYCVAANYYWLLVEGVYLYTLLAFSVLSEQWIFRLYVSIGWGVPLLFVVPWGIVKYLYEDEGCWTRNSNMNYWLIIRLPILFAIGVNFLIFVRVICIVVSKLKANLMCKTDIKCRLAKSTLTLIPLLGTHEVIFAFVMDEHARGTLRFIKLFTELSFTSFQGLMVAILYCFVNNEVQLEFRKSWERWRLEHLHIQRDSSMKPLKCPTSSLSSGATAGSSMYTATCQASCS
`CC1(c2ccc(Cl)cc2)Oc2cccc(C3CCN(Cc4nc5cc(-c6nnc(C(F)(F)F)[nH]6)ncc5n4C[C@@H]4CCO4)CC3)c2O1` (stereo partly drawn) [Compound 361a, 4-[2-(4-chlorophenyl)-2-methyl-2H-1,3-benzodioxol-4-yl]-1-[(3-{[(2S)-oxetan-2-yl]methyl}-6-[5-(trifluoromethyl)-4H-1,2,4-triazol-3-yl]-3H-imidazo[4,5-c]pyridin-2-yl)methyl]piperidine]: the pEC50 is 10.47.

`N#Cc1ccc(COc2nc(C3CCN(Cc4nc5cc(-c6nnc(C(F)(F)F)[nH]6)nnc5n4C[C@@H]4CCO4)CC3)ccc2F)c(F)c1` [Compound 517a, 3-fluoro-4-{[(3-fluoro-6-{1-[(7-{[(2S)-oxetan-2-yl]methyl}-3-[5-(trifluoromethyl)-4H-1,2,4-triazol-3-yl]-7H-imidazo[4,5-c]pyridazin-6-yl)methyl]piperidin-4-yl}pyridin-2-yl)oxy]methyl}benzonitrile]: the pEC50 is 10.37.

In the case of `O=C(Nc1ccc2c(c1)nc(CN1CCC(c3cccc(OCc4ccc(Cl)cc4F)n3)CC1)n2C[C@@H]1CCO1)C1(C2CC2)CCCO1` (stereo partly drawn) [Compound 199a, N-{2-[(4-{6-[(4-chloro-2-fluorophenyl)methoxy]pyridin-2-yl}piperidin-1-yl)methyl]-1-{[(2S)-oxetan-2-yl]methyl}-1H-1,3-benzodiazol-5-yl}-2-cyclopropyloxolane-2-carboxamide], the pEC50 was 8.13. Against the preceding compound, the pEC50 is 2.24 log units lower.

`Cc1ncccc1C(=O)Nc1ccc2c(c1)nc(CN1CCC(c3cccc(OCc4ccc(Cl)cc4F)n3)CC1)n2C[C@@H]1CCO1` [Compound 188a, N-{2-[(4-{6-[(4-chloro-2-fluorophenyl)methoxy]pyridin-2-yl}piperidin-1-yl)methyl]-1-{[(2S)-oxetan-2-yl]methyl}-1H-1,3-benzodiazol-5-yl}-2-methylpyridine-3-carboxamide] had a negative logarithm of the EC50 (pEC50) of 10.37.

Take `N#Cc1ccc(COc2cccc(C3=CCN(Cc4nc5cc(-c6noc(=O)[nH]6)cnc5n4C[C@@H]4CCO4)CC3)c2)c(F)c1` [Compound 318a, 3-fluoro-4-[(3-{1-[(3-{[(2S)-oxetan-2-yl]methyl}-6-(5-oxo-4,5-dihydro-1,2,4-oxadiazol-3-yl)-3H-imidazo[4,5-b]pyridin-2-yl)methyl]-1,2,3,6-tetrahydropyridin-4-yl}phenoxy)methyl]benzonitrile]: the pEC50 was 8.00. This pEC50 lies 2.37 log units lower than the previous one.

The compound `C[C@]1(c2ccc(Cl)cc2F)Oc2cccc(C3CCN(Cc4nc5cc(-c6nnc(C(F)F)[nH]6)ncc5n4C[C@@H]4CCO4)CC3)c2O1` [Compound 360a, 4-[(2S)-2-(4-chloro-2-fluorophenyl)-2-methyl-2H-1,3-benzodioxol-4-yl]-1-({6-[5-(difluoromethyl)-4H-1,2,4-triazol-3-yl]-3-{[(2S)-oxetan-2-yl]methyl}-3H-imidazo[4,5-c]pyridin-2-yl}methyl)piperidine] showed a pEC50 of 11.04.

Consider `FC(F)(F)c1nnc(-c2cnc3c(c2)nc(CN2CCC(c4cccc5c4OC[C@@H](c4ccc(Cl)cc4)O5)CC2)n3C[C@@H]2CCO2)[nH]1` [Compound 408a, 4-[(2R)-2-(4-chlorophenyl)-2,3-dihydro-1,4-benzodioxin-5-yl]-1-[(3-{[(2S)-oxetan-2-yl]methyl}-6-[5-(trifluoromethyl)-4H-1,2,4-triazol-3-yl]-3H-imidazo[4,5-b]pyridin-2-yl)methyl]piperidine], for which the pEC50 is 9.55.

`Cn1cc(-c2ccc3c(c2)nc(CN2CCC(c4cccc5c4OC(C)(c4ccc(Cl)cc4F)O5)CC2)n3C[C@@H]2CCO2)cn1` (stereo partly drawn) [Compound 233a, 2-((4-(2-(4-chloro-2-fluorophenyl)-2-methylbenzo[d][1,3]dioxol-4-yl)piperidin-1-yl)methyl)-5-(1-methyl-1H-pyrazol-4-yl)-1-(((S)-oxetan-2-yl)methyl)-1H-benzo[d]imidazole]: the pEC50 was 8.40.

The compound `O=c1[nH]c(-c2cc3nc(CN4CCC(c5ccnc(OCc6ccc(Cl)cc6F)n5)CC4)n(C[C@@H]4CCO4)c3cn2)no1` [Compound 460a, 3-{2-[(4-{2-[(4-chloro-2-fluorophenyl)methoxy]pyrimidin-4-yl}piperidin-1-yl)methyl]-3-{[(2S)-oxetan-2-yl]methyl}-3H-imidazo[4,5-c]pyridin-6-yl}-4,5-dihydro-1,2,4-oxadiazol-5-one] showed a pEC50 of 9.82.

With `CC1(c2ccc(C#N)cc2F)Oc2cccc(C3CCN(Cc4nc5cc(-c6nnc(C(F)(F)F)[nH]6)ccc5n4C[C@@H]4CCO4)CC3)c2O1` (stereo partly drawn) [Compound 261a, 3-fluoro-4-(2-methyl-4-{1-[(1-{[(2S)-oxetan-2-yl]methyl}-5-[5-(trifluoromethyl)-4H-1,2,4-triazol-3-yl]-1H-1,3-benzodiazol-2-yl)methyl]piperidin-4-yl}-2H-1,3-benzodioxol-2-yl)benzonitrile], the negative logarithm of the EC50 (pEC50) is 10.74.

The compound `CC(C)C(=O)Nc1ccc2c(c1)nc(CN1CCC(c3cccc(OCc4ccc(Cl)cc4F)n3)CC1)n2C[C@@H]1CCO1` [Compound 105a, (S)—N-(2-((4-(6-((4-chloro-2-fluorobenzyl)oxy)pyridin-2-yl)piperidin-1-yl)methyl)-1-(oxetan-2-ylmethyl)-1H-benzo[d]imidazol-5-yl)isobutyramide] had a pEC50 of 9.76.

Compound `CC1(c2ccc(C#N)cc2F)Oc2cccc(C3CCN(Cc4nc5cc(-c6nnc(C7CC7)[nH]6)cnc5n4C[C@@H]4CCO4)CC3)c2O1` (stereo partly drawn) [Compound 276a, 4-[4-(1-{[6-(5-cyclopropyl-4H-1,2,4-triazol-3-yl)-3-{[(2S)-oxetan-2-yl]methyl}-3H-imidazo[4,5-b]pyridin-2-yl]methyl}piperidin-4-yl)-2-methyl-2H-1,3-benzodioxol-2-yl]-3-fluorobenzonitrile] had a pEC50 of 9.25.

Turning to `N#Cc1ccc(COc2cccc(N3CCN(Cc4nc5cc(-c6nnc(C(F)(F)F)[nH]6)nnc5n4C[C@@H]4CCO4)CC3)n2)c(F)c1` [Compound 493a, 3-fluoro-4-{[(6-{4-[(7-{[(2S)-oxetan-2-yl]methyl}-3-[5-(trifluoromethyl)-4H-1,2,4-triazol-3-yl]-7H-imidazo[4,5-c]pyridazin-6-yl)methyl]piperazin-1-yl}pyridin-2-yl)oxy]methyl}benzonitrile], the pEC50 is 10.36.

In the case of `CC1(c2ccc(Cl)cc2F)Oc2cccc(C3=CCN(Cc4nc5cc(-c6nnc(C(F)(F)F)[nH]6)ccc5n4C[C@@H]4CCO4)CC3)c2O1` (stereo partly drawn) [Compound 256a, 2-({4-[2-(4-chloro-2-fluorophenyl)-2-methyl-2H-1,3-benzodioxol-4-yl]-1,2,3,6-tetrahydropyridin-1-yl}methyl)-1-{[(2S)-oxetan-2-yl]methyl}-5-[5-(trifluoromethyl)-4H-1,2,4-triazol-3-yl]-1H-1,3-benzodiazole], the pEC50 was 9.64.

`Fc1cc(Cl)ccc1COc1cccc(C2CCN(Cc3nc4cc(-c5nnc(C(F)(F)F)[nH]5)ncc4n3C[C@@H]3CCO3)CC2)n1` [Compound 435a, 2-[(4-chloro-2-fluorophenyl)methoxy]-6-{1-[(3-{[(2S)-oxetan-2-yl]methyl}-6-[5-(trifluoromethyl)-4H-1,2,4-triazol-3-yl]-3H-imidazo[4,5-c]pyridin-2-yl)methyl]piperidin-4-yl}pyridine] showed a pEC50 of 10.74.

Compound `C[C@]1(c2ccc(Cl)cc2F)Oc2cccc(C3CCN(Cc4nc5cc(-c6nnc(C(F)(F)F)[nH]6)ccc5n4CC4(C#N)CC4)CC3)c2O1` [Compound 412a, 1-{[2-({4-[(2S)-2-(4-chloro-2-fluorophenyl)-2-methyl-2H-1,3-benzodioxol-4-yl]piperidin-1-yl}methyl)-5-[5-(trifluoromethyl)-4H-1,2,4-triazol-3-yl]-1H-1,3-benzodiazol-1-yl]methyl}cyclopropane-1-carbonitrile] had a pEC50 of 10.48.

In the case of `O=C(Nc1ccc2c(c1)nc(CN1CCC(c3cccc(OCc4ccc(Cl)cc4F)n3)CC1)n2C[C@@H]1CCO1)C1CCCNC1` (stereo partly drawn) [Compound 203a, N-{2-[(4-{6-[(4-chloro-2-fluorophenyl)methoxy]pyridin-2-yl}piperidin-1-yl)methyl]-1-{[(2S)-oxetan-2-yl]methyl}-1H-1,3-benzodiazol-5-yl}piperidine-3-carboxamide], the pEC50 was 8.49.

Compound `CC(=O)Nc1ccc2c(c1)nc(CN1CCC(c3cccc4c3OC(C)(c3ccc(Cl)cc3F)O4)CC1)n2C[C@@H]1CCO1` (stereo partly drawn) [Compound 115a, N-(2-((4-(2-(4-chloro-2-fluorophenyl)-2-methylbenzo[d][1,3]dioxol-4-yl)piperidin-1-yl)methyl)-1-((S)-oxetan-2-ylmethyl)-1H-benzo[d]imidazol-5-yl)acetamide] gave a pEC50 of 8.93. Against the preceding compound, the pEC50 is 0.44 log units higher.

For `C[C@]1(c2ccc(Cl)cc2F)Oc2cccc(C3CCN(Cc4nc5cc(-c6noc(=O)[nH]6)ncc5n4C[C@@H]4CCO4)CC3)c2O1` [Compound 375a, 3-[2-({4-[(2S)-2-(4-chloro-2-fluorophenyl)-2-methyl-2H-1,3-benzodioxol-4-yl]piperidin-1-yl}methyl)-3-{[(2S)-oxetan-2-yl]methyl}-3H-imidazo[4,5-c]pyridin-6-yl]-4,5-dihydro-1,2,4-oxadiazol-5-one], the pEC50 was 11.20.

As to `Nc1cccc(-c2ccc3c(c2)nc(CN2CCC(c4cccc(OCc5ccc(Cl)cc5F)n4)CC2)n3C[C@@H]2CCO2)n1` [Compound 212a, 6-{2-[(4-{6-[(4-chloro-2-fluorophenyl)methoxy]pyridin-2-yl}piperidin-1-yl)methyl]-1-{[(2S)-oxetan-2-yl]methyl}-1H-1,3-benzodiazol-5-yl}pyridin-2-amine], the pEC50 was 8.12. Against the preceding compound, the pEC50 is 3.08 log units lower.

Take `Fc1cc(Cl)ccc1COc1nc(C2CCN(Cc3nc4cc(-c5nnc(C(F)(F)F)[nH]5)ncc4n3C[C@@H]3CCO3)CC2)ccc1F` [Compound 472a, 2-[(4-chloro-2-fluorophenyl)methoxy]-3-fluoro-6-{1-[(3-{[(2S)-oxetan-2-yl]methyl}-6-[5-(trifluoromethyl)-4H-1,2,4-triazol-3-yl]-3H-imidazo[4,5-c]pyridin-2-yl)methyl]piperidin-4-yl}pyridine]: the pEC50 was 10.92.
